Drawing on patent US7115658B2 (priority 2002, dated 2006), this text covers IC50 for 14 molecules.

The target of this test is T1, Recombinant HCV polymerase (Hepatitis C virus genotype 1b, UniProt P26663).
T1 construct: 2.5 pmoles (0.15 μg) HCV polymerase protein
The test can be described thus: HCV Polymerase Inhibition Assay. The test is classed as biochemical. As to conditions: primer/template-directed transcription, 30 minutes at 30° C.; category symbol. As for the experimental part: The above-described compounds were tested for activity with HCV polymerase. Recombinant HCV polymerase was tested for its ability to perform primer/template-directed transcription in assays that contained 30 mM tris-HCl pH 7.2, 10 mM MgCl2, 20 mM NaCl, 1 mM Dithiothreitol (DTT), 0.05% Tween-20, 1% glycerol, 5 pmoles biotin-dG12 (primer), 0.5 pmoles poly(rC)300 (template), 1 μM GTP, 0.1–0.3 uCi α-^32P-GTP, and 2.5 pmoles (0.15 μg) HCV polymerase protein in a final volume of 75 μL. Reactions were initiated by addition of enzyme and incubated 30 minutes at 30° C. Reactions were stopped by addition of 33 mM EDTA, and polynucleotide products were collected by filtration through Diethylaminoethyl (DE) Filtermat papers (Wallac). Unincorporated triphosphate was removed by washing the filters with 5% dibasic sodium phosphate. The filters were counted in a Packard Tri-Lux Microbeta scintillation counter (Packard Bioscience, Meriden, Conn.). Compounds to be tested were added at various concentrations, e.g., 1 μm to 50 μm, from stocks in 10% DMSO-water (final DMSO is 1% in reaction).
IC50 values were estimated from the primary cpm data (collected in triplicate) using the formula: cpm (I)=cpm (no inhibitor)(1−([I]/([I]+IC50))). An IC50 value represents the concentration (in μM) of a compound that provides 50% inhibition of polymerase-directed transcription in the above assay. A percent inhibition value is expressed for a compound where it was impractical to calculate an IC50 value with available data. If the IC50 estimated by the above equation was less than 200 nM, it was recalculated using the following equation, which takes into account the enzyme concentration (30 nM) in the assay: cpm(I)=cpm(no inhibitor)(1−((((I+IC50+30e−9)−sqrt(((I+IC50+30e−9)^2)−4×30e−9×I)))/((2) (30e−9))). Curve fitting was performed using the program KaleidaGraph (Synergy Software, Reading, Pa.).

T1 sequence (P26663 2420-3010): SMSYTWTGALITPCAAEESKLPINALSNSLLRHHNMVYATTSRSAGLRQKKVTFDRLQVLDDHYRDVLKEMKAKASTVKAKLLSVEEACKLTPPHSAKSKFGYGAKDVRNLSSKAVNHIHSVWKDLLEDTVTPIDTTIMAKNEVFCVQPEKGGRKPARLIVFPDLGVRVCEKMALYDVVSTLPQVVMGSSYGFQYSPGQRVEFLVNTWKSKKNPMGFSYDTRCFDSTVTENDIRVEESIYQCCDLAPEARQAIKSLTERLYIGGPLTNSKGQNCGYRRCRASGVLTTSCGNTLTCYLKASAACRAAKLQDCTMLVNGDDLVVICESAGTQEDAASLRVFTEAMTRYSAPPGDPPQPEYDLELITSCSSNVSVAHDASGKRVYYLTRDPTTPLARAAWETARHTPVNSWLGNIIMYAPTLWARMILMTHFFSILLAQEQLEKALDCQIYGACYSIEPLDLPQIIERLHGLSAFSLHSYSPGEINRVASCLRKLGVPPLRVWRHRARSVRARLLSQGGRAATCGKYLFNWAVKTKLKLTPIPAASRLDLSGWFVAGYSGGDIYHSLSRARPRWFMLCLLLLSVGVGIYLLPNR

For orientation: IC50 means the concentration that gives 50% inhibition. In the case of `Cc1ccc(S(=O)(=O)Oc2cc(C(C)(C)C)c(SC3=C(O)CC(CCc4ccc(O)cc4)(C4CCCCC4)OC3=O)cc2C)cc1` (centres unmarked) [Example 137, Toluene-4-sulfonic acid 5-tert-butyl-4-(6-Cyclohexyl-4-hydroxy-6-[2-(4-hydroxy-phenyl)-ethyl]-2-oxo-5,6-dihydro-2H-pyran-3-ylsulfanyl)-2-methyl-phenyl ester], the IC50 is 10 to 50 µM. Take `CC(=O)C1C(=O)CC(CCc2cccc(Cl)c2)(C2CCCC2)OC1=O` (centres unmarked) [Example 167, 3-Acetyl-6-[2-(3-chloro-phenyl)-ethyl]-6-cyclopentyl-dihydro-pyran-2,4-dione]: the IC50 was in the range of 10 to 50 µM. On to `O=C1CC(=O)OC(CCc2ccc(C(=O)N3CCOCC3)cc2)(C2CCCC2)C1` (centres unmarked) [Example 68, 6-Cyclopentyl-6-{2-[4-(morpholine-4-carbonyl)-phenyl]-ethyl}-dihydro-pyran-2,4-dione], for which the IC50 is greater than 50 µM. As to `CC(=O)c1ccc(CCC2(C3CCCC3)CC(=O)CC(=O)O2)cc1` (centres unmarked) [Example 63, 6-[2-(4-Acetyl-phenyl)-ethyl]-6-cyclopentyl-dihydro-pyran-2,4-dione], the IC50 lay in the range of 1 to 10 µM. The value for `O=C1CC(=O)OC(CCc2ccc(N3CCCC3=O)c(F)c2)(C2CCCC2)C1` (centres unmarked) [Example 80, 6-Cyclopentyl-6-{2-[3-fluoro-4-(2-oxo-pyrrolidin-1-yl)-phenyl]-ethyl}-dihydro-pyran-2,4-dione] was 1 to 10 µM; that for `COc1cc(OC)c(CCC2(C3CCCC3)CC(O)=C(Sc3nc4nc(C)cc(C)n4n3)C(=O)O2)cc1Cl` (centres unmarked) [Example 91, 6-[2-(5-Chloro-2,4-dimethoxyphenyl)ethyl]-6-cyclopentyl-3-[(5,7-dimethyl[1,2,4]triazolo[1,5-a]pyrimidin-2-yl)thio]-4-hydroxy-5,6-dihydro-2H-pyran-2-one] was less than 1 µM; that for `O=C1CC(CCc2ccccc2)(C2CCCC2)OC(=O)C1Cc1ccccc1` (centres unmarked) [Example 88, 3-benzyl-6-cyclopentyl-6-(2-phenylethyl)dihydro-2H-pyran-2,4(3H)-dione] was 10 to 50 µM. As for `O=C1OC(CCc2ccc(OCc3ccccc3)cc2)(C2CCCC2)CC(O)=C1Sc1nc(O)c2cc[nH]c2n1` (centres unmarked) [Example 123, 6-{2-[4-(Benzyloxy)phenyl]ethyl}-6-cyclopentyl-4-hydroxy-3-[(4-hydroxy-7H-pyrrolo[2,3-d]pyrimidin-2-yl)thio]-5,6-dihydro-2H-pyran-2-one], the IC50 was less than 1 µM. Next, `COc1cc(OC)c(CCC2(C3CCCC3)CC(=O)CC(=O)O2)cc1Cl` (centres unmarked) [Example 39, 6-[2-(5-chloro-2,4-dimethoxyphenyl)ethyl]-6-cyclopentyldihydro-2H-pyran-2,4(3H)-dione]: less than 1 µM; `O=C1CC(=O)OC(CCc2ccccc2CO)(C2CCCC2)C1` (centres unmarked) [Example 6, 6-Cyclopentyl-6-[2-(2-hydroxymethylphenyl)ethyl]dihydropyran-2,4-dione]: 10 to 50 µM.

On to `CC(=O)c1cccc(CCC2(C3CCCC3)CC(=O)CC(=O)O2)c1` (centres unmarked) [Example 64, 6-[2-(3-Acetyl-phenyl)-ethyl]-6-cyclopentyl-dihydro-pyran-2,4-dione], for which the IC50 was in the range of 1 to 10 µM. Next, `COc1ccc(CCC2(C3CCCC3)CC(=O)CC(=O)O2)c(C#N)c1` (centres unmarked) [Example 7, 2-[2-(2-Cyclopentyl-4,6-dioxo-tetrahydro-pyran-2-yl)-ethyl]-5-methoxy-benzonitrile]: 10 to 50 µM; `Cc1cc(SC2=C(O)CC(CCc3ccc(O)cc3)(C3CCCCC3)OC2=O)c(C(C)(C)C)cc1OS(=O)(=O)c1ccc(C#N)cc1` (centres unmarked) [Example 139, 4-Cyano-benzenesulfonic acid 5-tert-butyl-4-{6-cyclohexyl-4-hydroxy-6-[2-(4-hydroxy-phenyl)-ethyl]-2-oxo-5,6-dihydro-2H-pyran-3-ylsulfanyl}-2-methyl-phenyl ester]: 1 to 10 µM; “6-[2-(3-Chloro-4-isopropoxy-phenyl)-ethyl]-6-cyclopentyl-4-hydroxy-3-(4-methoxy-phenylsulfanyl)-5,6-dihydro-pyran-2-one [Example 131]”: less than 1 µM.
